Reference: ChEMBL document CHEMBL4507300 (2021)

How the values were obtained:
[1] = tested on: Tyrosine-protein kinase ABL1 (Homo sapiens), P00519 [F317L]; details: Compound concentration 1000.0 nM
[2] = biological target: Activin receptor type-2B (Homo sapiens) (UniProt Q13705); details: Compound concentration 1000.0 nM
[3] = tested on: ALK tyrosine kinase receptor (Homo sapiens), Q9UM73 [L1196M]; details: Compound concentration 1000.0 nM
[4] = biological target: Mitogen-activated protein kinase kinase kinase 5 (Homo sapiens) (UniProt Q99683); details: Compound concentration 1000.0 nM
[5] = biological target: Bone morphogenetic protein receptor type-2 (Homo sapiens) (UniProt Q13873); details: Compound concentration 1000.0 nM
Sequence of Bone morphogenetic protein receptor type-2 (Homo sapiens) (Q13873 whole entry): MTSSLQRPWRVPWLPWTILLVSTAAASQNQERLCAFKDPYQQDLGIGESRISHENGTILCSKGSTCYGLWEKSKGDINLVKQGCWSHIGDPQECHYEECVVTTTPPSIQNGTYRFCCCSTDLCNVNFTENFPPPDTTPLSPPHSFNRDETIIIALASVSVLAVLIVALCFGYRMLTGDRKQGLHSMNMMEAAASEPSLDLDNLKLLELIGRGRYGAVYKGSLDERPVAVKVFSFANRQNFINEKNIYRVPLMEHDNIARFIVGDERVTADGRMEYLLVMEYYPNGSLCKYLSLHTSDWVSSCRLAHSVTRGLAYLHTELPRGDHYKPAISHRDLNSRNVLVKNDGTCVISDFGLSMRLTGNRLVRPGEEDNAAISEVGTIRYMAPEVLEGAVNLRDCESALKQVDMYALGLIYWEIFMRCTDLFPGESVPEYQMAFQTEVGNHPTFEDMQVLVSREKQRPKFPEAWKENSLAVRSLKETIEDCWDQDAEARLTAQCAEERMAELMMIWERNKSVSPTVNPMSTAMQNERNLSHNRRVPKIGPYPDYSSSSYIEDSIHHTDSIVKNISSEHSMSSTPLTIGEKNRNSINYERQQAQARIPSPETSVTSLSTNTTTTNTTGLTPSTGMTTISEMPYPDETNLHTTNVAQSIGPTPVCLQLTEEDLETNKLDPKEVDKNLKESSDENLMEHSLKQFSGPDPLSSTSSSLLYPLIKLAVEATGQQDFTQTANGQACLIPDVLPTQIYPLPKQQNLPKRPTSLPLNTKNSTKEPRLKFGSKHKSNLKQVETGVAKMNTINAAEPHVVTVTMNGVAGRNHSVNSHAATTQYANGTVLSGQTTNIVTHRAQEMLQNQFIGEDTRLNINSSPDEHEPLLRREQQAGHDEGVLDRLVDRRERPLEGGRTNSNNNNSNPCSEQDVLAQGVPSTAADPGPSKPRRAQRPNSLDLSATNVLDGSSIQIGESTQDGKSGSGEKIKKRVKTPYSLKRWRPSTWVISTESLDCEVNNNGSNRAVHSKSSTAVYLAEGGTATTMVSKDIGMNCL

[6] = biological target: Tyrosine-protein kinase BTK (Homo sapiens) (UniProt Q06187); details: Compound concentration 1000.0 nM
[7] = biological target: Cyclin-dependent kinase 11A (Homo sapiens) (UniProt Q9UQ88); details: Compound concentration 1000.0 nM
[8] = biological target: Citron Rho-interacting kinase (Homo sapiens) (UniProt O14578); details: Compound concentration 1000.0 nM
[9] = biological target: Casein kinase I isoform gamma-2 (Homo sapiens) (UniProt P78368); details: Compound concentration 1000.0 nM
[10] = biological target: Serine/threonine-protein kinase DCLK2 (Homo sapiens) (UniProt Q8N568); details: Compound concentration 1000.0 nM
[11] = biological target: Mitogen-activated protein kinase kinase kinase 12 (Homo sapiens) (UniProt Q12852); details: Compound concentration 1000.0 nM
[12] = biological target: Ephrin type-B receptor 4 (Homo sapiens) (UniProt P54760); details: Compound concentration 1000.0 nM
[13] = biological target: Ephrin type-B receptor 6 (Homo sapiens) (UniProt O15197); details: Compound concentration 1000.0 nM
[14] = tested on: Receptor-type tyrosine-protein kinase FLT3 (Homo sapiens), P36888 [UNDEFINED MUTATION]; details: Compound concentration 1000.0 nM
Sequence of Receptor-type tyrosine-protein kinase FLT3 (Homo sapiens), P36888 [UNDEFINED MUTATION] (P36888 whole entry, looked up, change not shown): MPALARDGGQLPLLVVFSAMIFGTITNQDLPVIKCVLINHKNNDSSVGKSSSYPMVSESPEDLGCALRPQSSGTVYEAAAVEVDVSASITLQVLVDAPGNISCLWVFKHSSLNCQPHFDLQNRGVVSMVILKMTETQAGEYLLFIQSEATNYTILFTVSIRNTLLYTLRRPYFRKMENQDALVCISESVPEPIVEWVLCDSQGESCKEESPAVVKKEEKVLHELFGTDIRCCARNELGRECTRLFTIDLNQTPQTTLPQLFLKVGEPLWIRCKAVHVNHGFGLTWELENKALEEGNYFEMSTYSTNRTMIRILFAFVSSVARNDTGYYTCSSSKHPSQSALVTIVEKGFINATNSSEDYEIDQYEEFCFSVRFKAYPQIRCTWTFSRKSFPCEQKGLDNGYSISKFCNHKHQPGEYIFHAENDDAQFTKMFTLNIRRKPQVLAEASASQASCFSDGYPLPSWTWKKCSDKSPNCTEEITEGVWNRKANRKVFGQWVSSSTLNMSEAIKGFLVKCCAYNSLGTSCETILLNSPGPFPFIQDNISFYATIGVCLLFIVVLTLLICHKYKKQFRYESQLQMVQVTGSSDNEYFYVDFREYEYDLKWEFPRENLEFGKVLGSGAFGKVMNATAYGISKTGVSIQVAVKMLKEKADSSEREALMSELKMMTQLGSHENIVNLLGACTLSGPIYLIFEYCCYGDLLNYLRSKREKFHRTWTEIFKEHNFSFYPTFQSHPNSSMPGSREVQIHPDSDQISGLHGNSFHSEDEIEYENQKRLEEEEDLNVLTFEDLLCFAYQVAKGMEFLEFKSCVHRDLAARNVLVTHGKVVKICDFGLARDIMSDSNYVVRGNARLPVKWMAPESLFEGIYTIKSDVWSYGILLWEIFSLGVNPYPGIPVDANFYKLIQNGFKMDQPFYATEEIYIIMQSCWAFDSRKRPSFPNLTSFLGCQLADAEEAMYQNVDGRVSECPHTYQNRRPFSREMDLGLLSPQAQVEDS

[15] = tested on: Receptor-type tyrosine-protein kinase FLT3 (Homo sapiens), P36888 [UNDEFINED MUTATION]; details: Compound concentration 1000.0 nM; remark: listed apart in the source
[16] = biological target: Serine/threonine-protein kinase ICK (Homo sapiens) (UniProt Q9UPZ9); details: Compound concentration 1000.0 nM
[17] = biological target: Inhibitor of nuclear factor kappa-B kinase subunit epsilon (Homo sapiens) (UniProt Q14164); details: Compound concentration 1000.0 nM
Sequence of Inhibitor of nuclear factor kappa-B kinase subunit epsilon (Homo sapiens) (Q14164 whole entry): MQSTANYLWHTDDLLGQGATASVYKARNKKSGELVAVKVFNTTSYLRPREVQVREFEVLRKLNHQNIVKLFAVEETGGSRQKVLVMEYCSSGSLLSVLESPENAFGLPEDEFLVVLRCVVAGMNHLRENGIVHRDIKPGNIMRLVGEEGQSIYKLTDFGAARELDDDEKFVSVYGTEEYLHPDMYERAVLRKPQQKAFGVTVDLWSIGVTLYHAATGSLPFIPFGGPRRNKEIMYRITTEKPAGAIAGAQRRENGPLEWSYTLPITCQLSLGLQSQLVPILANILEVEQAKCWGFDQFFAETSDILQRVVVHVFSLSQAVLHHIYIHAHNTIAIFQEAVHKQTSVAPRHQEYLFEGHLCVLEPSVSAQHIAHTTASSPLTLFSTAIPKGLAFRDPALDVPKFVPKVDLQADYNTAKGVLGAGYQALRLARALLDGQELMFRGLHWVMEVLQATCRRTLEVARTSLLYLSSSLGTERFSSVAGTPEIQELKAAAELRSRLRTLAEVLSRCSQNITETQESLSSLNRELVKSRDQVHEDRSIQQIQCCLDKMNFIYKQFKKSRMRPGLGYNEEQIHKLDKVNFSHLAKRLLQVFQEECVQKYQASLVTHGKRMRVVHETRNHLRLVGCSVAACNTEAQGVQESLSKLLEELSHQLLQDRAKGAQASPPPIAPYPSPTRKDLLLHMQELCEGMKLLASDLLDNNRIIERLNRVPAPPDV

[18] = biological target: Interleukin-1 receptor-associated kinase 1 (Homo sapiens) (UniProt P51617); details: Compound concentration 1000.0 nM
[19] = biological target: Tyrosine-protein kinase JAK1 (Homo sapiens) (UniProt P23458); details: Compound concentration 1000.0 nM
[20] = biological target: Tyrosine-protein kinase JAK3 (Homo sapiens) (UniProt P52333); details: Compound concentration 1000.0 nM
[21] = tested on: Mast/stem cell growth factor receptor Kit (Homo sapiens), P10721 [D816V]; details: Compound concentration 1000.0 nM
[22] = biological target: Mitogen-activated protein kinase kinase kinase kinase 5 (Homo sapiens) (UniProt Q9Y4K4); details: Compound concentration 1000.0 nM
[23] = biological target: MAP kinase-activated protein kinase 5 (Homo sapiens) (UniProt Q8IW41); details: Compound concentration 1000.0 nM
[24] = biological target: Serine/threonine-protein kinase MARK1 (Homo sapiens) (UniProt Q9P0L2); details: Compound concentration 1000.0 nM
[25] = biological target: Dual specificity mitogen-activated protein kinase kinase 1 (Homo sapiens) (UniProt Q02750); details: Compound concentration 1000.0 nM
[26] = biological target: Mitogen-activated protein kinase kinase kinase 10 (Homo sapiens) (UniProt Q02779); details: Compound concentration 1000.0 nM
[27] = biological target: Serine/threonine-protein kinase Nek10 (Homo sapiens) (UniProt Q6ZWH5); details: Compound concentration 1000.0 nM
Sequence of Serine/threonine-protein kinase Nek10 (Homo sapiens) (Q6ZWH5 whole entry): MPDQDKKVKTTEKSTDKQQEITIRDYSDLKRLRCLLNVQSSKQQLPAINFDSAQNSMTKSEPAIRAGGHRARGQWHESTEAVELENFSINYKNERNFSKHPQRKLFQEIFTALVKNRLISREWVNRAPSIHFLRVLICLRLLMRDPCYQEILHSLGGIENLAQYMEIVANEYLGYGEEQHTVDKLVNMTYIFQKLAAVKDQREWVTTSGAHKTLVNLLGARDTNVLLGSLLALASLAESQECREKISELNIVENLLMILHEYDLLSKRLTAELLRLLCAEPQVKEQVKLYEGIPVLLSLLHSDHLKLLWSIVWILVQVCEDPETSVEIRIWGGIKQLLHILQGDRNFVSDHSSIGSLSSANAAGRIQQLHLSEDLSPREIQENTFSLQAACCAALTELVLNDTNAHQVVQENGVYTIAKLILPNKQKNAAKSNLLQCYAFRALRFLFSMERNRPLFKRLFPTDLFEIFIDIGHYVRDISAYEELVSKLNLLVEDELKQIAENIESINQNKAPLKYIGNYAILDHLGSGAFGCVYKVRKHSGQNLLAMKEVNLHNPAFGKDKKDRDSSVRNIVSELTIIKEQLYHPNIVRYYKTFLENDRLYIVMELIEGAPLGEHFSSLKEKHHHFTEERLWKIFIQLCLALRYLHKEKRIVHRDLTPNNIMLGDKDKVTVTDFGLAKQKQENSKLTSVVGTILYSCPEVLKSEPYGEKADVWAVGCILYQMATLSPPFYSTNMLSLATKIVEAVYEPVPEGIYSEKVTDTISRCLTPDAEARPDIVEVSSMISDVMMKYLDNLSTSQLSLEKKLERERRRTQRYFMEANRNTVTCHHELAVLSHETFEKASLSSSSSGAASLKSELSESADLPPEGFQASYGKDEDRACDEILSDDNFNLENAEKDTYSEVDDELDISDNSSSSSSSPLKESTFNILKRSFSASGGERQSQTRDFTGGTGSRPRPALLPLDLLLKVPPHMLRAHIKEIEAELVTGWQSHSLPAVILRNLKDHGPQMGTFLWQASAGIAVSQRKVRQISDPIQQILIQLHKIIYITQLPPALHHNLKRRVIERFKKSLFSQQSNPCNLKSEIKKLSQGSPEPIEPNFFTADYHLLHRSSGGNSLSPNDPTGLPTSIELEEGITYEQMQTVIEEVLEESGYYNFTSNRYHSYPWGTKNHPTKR

[28] = biological target: Serine/threonine-protein kinase Nek11 (Homo sapiens) (UniProt Q8NG66); details: Compound concentration 1000.0 nM
[29] = biological target: Mitogen-activated protein kinase 14 (Homo sapiens) (UniProt Q16539); details: Compound concentration 1000.0 nM
[30] = biological target: Mitogen-activated protein kinase 13 (Homo sapiens) (UniProt O15264); details: Compound concentration 1000.0 nM
[31] = biological target: Serine/threonine-protein kinase PAK 1 (Homo sapiens) (UniProt Q13153); details: Compound concentration 1000.0 nM
[32] = biological target: Calcium-dependent protein kinase 1 (Plasmodium falciparum) (UniProt P62344); details: Compound concentration 1000.0 nM
Sequence of Calcium-dependent protein kinase 1 (Plasmodium falciparum) (P62344 2-524 limits assumed): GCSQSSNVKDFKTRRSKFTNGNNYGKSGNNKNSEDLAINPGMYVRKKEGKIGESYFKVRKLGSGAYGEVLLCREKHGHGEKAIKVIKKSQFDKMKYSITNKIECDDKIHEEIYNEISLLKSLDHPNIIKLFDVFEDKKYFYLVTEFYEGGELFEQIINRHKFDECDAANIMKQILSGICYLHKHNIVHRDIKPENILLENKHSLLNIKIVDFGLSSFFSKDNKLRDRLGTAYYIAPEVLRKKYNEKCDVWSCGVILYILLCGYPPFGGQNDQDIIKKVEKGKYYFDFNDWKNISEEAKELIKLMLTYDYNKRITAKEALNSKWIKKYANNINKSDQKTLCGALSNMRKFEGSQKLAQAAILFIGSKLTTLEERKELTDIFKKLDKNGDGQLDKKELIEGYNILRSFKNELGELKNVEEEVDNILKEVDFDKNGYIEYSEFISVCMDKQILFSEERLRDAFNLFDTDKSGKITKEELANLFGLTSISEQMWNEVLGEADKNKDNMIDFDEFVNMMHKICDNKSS

[33] = tested on: Phosphatidylinositol 4,5-bisphosphate 3-kinase catalytic subunit alpha isoform (Homo sapiens), P42336 [E545K]; details: Compound concentration 1000.0 nM
[34] = biological target: Serine/threonine-protein kinase PLK3 (Homo sapiens) (UniProt Q9H4B4); details: Compound concentration 1000.0 nM
[35] = biological target: Protein-tyrosine kinase 2-beta (Homo sapiens) (UniProt Q14289); details: Compound concentration 1000.0 nM
[36] = biological target: Serine/threonine-protein kinase RIO1 (Homo sapiens) (UniProt Q9BRS2); details: Compound concentration 1000.0 nM
[37] = biological target: Serine/threonine-protein kinase RIO2 (Homo sapiens) (UniProt Q9BVS4); details: Compound concentration 1000.0 nM
[38] = biological target: Serine/threonine-protein kinase WNK1 (Homo sapiens) (UniProt Q9H4A3); details: Compound concentration 1000.0 nM
[39] = biological target: Mitogen-activated protein kinase kinase kinase 20 (Homo sapiens) (UniProt Q9NYL2); details: Compound concentration 1000.0 nM
[40] = biological target: 5-hydroxytryptamine receptor 2B (Homo sapiens, UniProt P41595); details: Compound concentration 10.0 uM
[41] = biological target: D(2) dopamine receptor (Homo sapiens) (UniProt P14416); details: Compound concentration 10.0 uM
[42] = biological target: Histamine H3 receptor (Homo sapiens) (UniProt Q9Y5N1); details: Compound concentration 10.0 uM
[43] = biological target: Histamine H4 receptor (Homo sapiens) (UniProt Q9H3N8); details: Compound concentration 10.0 uM
[44] = biological target: Alpha-2A adrenergic receptor (Homo sapiens) (UniProt P08913); details: Compound concentration 10.0 uM
[45] = biological target: Alpha-2C adrenergic receptor (Homo sapiens) (UniProt P18825); details: Compound concentration 10.0 uM
Sequence of Alpha-2C adrenergic receptor (Homo sapiens) (P18825 whole entry): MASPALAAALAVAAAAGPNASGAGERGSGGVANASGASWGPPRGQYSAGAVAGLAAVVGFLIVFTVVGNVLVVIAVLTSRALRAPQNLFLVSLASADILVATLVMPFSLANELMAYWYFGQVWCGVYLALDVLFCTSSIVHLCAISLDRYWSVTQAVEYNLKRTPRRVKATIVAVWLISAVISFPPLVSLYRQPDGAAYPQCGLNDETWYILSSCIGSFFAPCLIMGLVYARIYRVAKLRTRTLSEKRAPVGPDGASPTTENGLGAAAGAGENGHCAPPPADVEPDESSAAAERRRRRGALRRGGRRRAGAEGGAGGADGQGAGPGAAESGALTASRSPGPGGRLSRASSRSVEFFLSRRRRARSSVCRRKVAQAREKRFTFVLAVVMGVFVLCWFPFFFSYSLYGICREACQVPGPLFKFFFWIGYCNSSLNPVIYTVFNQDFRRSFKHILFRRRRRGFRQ

COc1cccc(CNC(=O)c2nc3scc(COCc4ccc(C(=O)O)cc4)c3c(=O)[nH]2)c1 [T-26c]
inactive: residual activity [1] 78.7% | residual activity [2] 100% | residual activity [3] 94.8% | residual activity [4] 97.8% | residual activity [5] 71.8% | residual activity [6] 63% | residual activity [7] 99.2% | residual activity [8] 100% | residual activity [9] 97.2% | residual activity [10] 100% | residual activity [11] 58.2% | residual activity [12] 89.4% | residual activity [13] 100% | residual activity [14] 93.7% | residual activity [15] 63% | residual activity [16] 66.1% | residual activity [17] 83.9% | residual activity [18] 75.6% | residual activity [19] 76% | residual activity [20] 78.4% | residual activity [21] 100% | residual activity [22] 87.3% | residual activity [23] 93.8% | residual activity [24] 96.7% | residual activity [25] 73.5% | residual activity [26] 100% | residual activity [27] 61.7% | residual activity [28] 65.6% | residual activity [29] 96.7% | residual activity [30] 100% | residual activity [31] 100% | residual activity [32] 72.7% | residual activity [33] 86.3% | residual activity [34] 65.3% | residual activity [35] 85.3% | residual activity [36] 52.1% | residual activity [37] 72.4% | residual activity [38] 76.7% | residual activity [39] 85.5% | inhibition [40] -9.07% | inhibition [41] 7.09% | inhibition [42] -9.59% | inhibition [43] 17.6% | inhibition [44] 17.2% | inhibition [45] 4.23%
